# Experimental data reported in ChEMBL document CHEMBL5729320, “Indoleamine-2,3-dioxygenase inhibitor, the preparative method and the use thereof” (2022).
# pIC50: −log10 of the molar value.
# Molecular target: Indoleamine 2,3-dioxygenase 1 (Homo sapiens, UniProt P14902)
# Test: Inhibitory Activity Assay: The tested compounds and the reference compounds are dissolved in DMSO to prepare a high concentration of storage solution. The stock solution of reference compound was diluted with DMSO to prepare a 100× solution. In the first column of the working plate, 8 μL above tested compounds and 8 μL 100× reference compound were respectively added as the highest concentration, and then the highest concentrations were subjected to three times dilution to obtain 11 concentrations and prepare 100× solution. 0.5 μL solution was transferred from the above plate to the detection plate. To each well was added 0.5 μL 100× compound solution. For HPE and ZPE control wells, 0.5 μL 100% DMSO was added.25 μL 2×IDO1 (His-tag) enzyme solution (containing L-ascorbic acid, methylene blue, and catalase) was added to each well. 25 μL reaction solution without IDO1 (His-tag) enzyme was added into HPE control well. The test plate was centrifugated at 1000 rpm for 1 minute to mix well. Then, the test plate was incubated at room temperature for 30 minutes. 25 μL above 2× substrate (L-tryptophan) solution was added to each well. The test plate was centrifugated at 1000 rpm for 1 minute to mix well. The detection plate was placed on ELISA (SpectraMax M5e), the temperature was set at 25° C., and the absorbance (OD value) was measured at 320 nm every 10 minutes till 60 minutes.
# Chain of Indoleamine 2,3-dioxygenase 1 (P14902 whole entry): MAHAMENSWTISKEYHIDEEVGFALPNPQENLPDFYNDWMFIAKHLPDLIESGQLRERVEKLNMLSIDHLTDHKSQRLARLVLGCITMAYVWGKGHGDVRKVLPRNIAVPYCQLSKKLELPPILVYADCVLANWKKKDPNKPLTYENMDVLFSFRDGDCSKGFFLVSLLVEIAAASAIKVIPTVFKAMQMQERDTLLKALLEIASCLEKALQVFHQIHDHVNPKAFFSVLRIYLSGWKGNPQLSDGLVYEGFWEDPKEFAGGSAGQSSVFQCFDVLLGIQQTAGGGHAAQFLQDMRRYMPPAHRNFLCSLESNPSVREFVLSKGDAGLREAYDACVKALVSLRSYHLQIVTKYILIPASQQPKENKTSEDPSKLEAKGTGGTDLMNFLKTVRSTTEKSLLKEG
smiles,measurement,value
NS(=O)(=O)N1CCC(CSc2nonc2C(=NO)Nc2ccc(F)c(Br)c2)C1 (stereo unspecified),pIC50,6.97
